Assay [1] has as its target T1, Glucagon-like peptide 1 receptor (Homo sapiens, UniProt P43220). The assay is described as follows: Displacement of [125I]-GLP1 from human GLP1 receptor expressed in BHK cells after 2 hrs in absence of human serum albumin. Format: cell-based. In general terms: Displacement assays read how much labelled ligand stays bound in the presence of the test substance.
The target of assay [2] is T1, Glucagon-like peptide 1 receptor. Put plainly: Displacement of [125I]-GLP1 from human GLP1 receptor expressed in BHK cells after 2 hrs in presence of 2% human serum albumin. The format is cell-based.
Assay [3] shares this target. Put plainly: Agonist activity at human GLP1 receptor expressed in BHK cells after 3 hrs by CRE firefly luciferase reporter gene assay in absence of human serum albumin. The format is functional, cell-based. A general note: Reporter assays use an easily measured gene product as a stand-in for the process of interest.

The structures appear in SMILES notation.

T1 sequence (P43220 whole entry): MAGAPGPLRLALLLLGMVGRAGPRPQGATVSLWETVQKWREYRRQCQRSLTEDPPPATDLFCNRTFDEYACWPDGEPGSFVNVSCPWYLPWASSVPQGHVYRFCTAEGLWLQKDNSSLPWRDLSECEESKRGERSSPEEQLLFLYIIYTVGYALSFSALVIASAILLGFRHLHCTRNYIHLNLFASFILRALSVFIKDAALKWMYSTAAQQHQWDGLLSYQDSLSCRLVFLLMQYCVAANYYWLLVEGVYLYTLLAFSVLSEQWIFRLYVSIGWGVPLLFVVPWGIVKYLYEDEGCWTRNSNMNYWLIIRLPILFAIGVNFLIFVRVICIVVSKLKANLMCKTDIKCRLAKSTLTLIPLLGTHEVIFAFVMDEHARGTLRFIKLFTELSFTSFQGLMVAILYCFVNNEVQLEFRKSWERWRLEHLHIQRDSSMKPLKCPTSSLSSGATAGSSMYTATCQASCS

Broadly, the IC50 is the concentration needed to halve the response being measured. Broadly, the EC50 is the concentration at which the effect is half-maximal. Read a high EC50 as weaker potency. On to `CCCCCCCCCCCCCCCCCCCC(=O)N[C@@H](CCC(=O)NCCOCCOCC(=O)NCCOCCOCC(=O)NCCCC[C@H](NC(=O)[C@H](C)NC(=O)[C@H](C)NC(=O)[C@H](CCC(N)=O)NC(=O)CNC(=O)[C@H](CCC(=O)O)NC(=O)[C@H](CC(C)C)NC(=O)[C@H](Cc1ccc(O)cc1)NC(=O)[C@H](CO)NC(=O)[C@H](CO)NC(=O)[C@@H](NC(=O)[C@H](CC(=O)O)NC(=O)[C@H](CO)NC(=O)[C@@H](NC(=O)[C@H](Cc1ccccc1)NC(=O)[C@@H](NC(=O)CNC(=O)[C@H](CCC(=O)O)NC(=O)C(C)(C)NC(=O)[C@@H](N)Cc1c[nH]cn1)[C@@H](C)O)[C@@H](C)O)C(C)C)C(=O)N[C@@H](CCC(=O)O)C(=O)N[C@@H](Cc1ccccc1)C(=O)N[C@H](C(=O)N[C@@H](C)C(=O)N[C@@H](Cc1c[nH]c2ccccc12)C(=O)N[C@@H](CC(C)C)C(=O)N[C@H](C(=O)N[C@@H](CCCNC(=N)N)C(=O)NCC(=O)N[C@@H](CCCNC(=N)N)C(=O)NCC(=O)O)C(C)C)[C@@H](C)CC)C(=O)O`, for which the IC50 in assay [1] came to 180 pM; in assay [2], 880 pM. Besides, the EC50 in assay [3] stood at 4.8 pM.

Turning to `CC[C@H](C)[C@H](NC(=O)[C@H](Cc1ccccc1)NC(=O)[C@H](CCC(=O)O)NC(=O)[C@H](CCCCNC(=O)COCCOCCNC(=O)COCCOCCNC(=O)CC[C@H](NC(=O)CCCCCCCCCCCCCCCCCCCCC(=O)O)C(=O)O)NC(=O)[C@H](C)NC(=O)[C@H](C)NC(=O)[C@H](CCC(N)=O)NC(=O)CNC(=O)[C@H](CCC(=O)O)NC(=O)[C@H](CC(C)C)NC(=O)[C@H](Cc1ccc(O)cc1)NC(=O)[C@H](CO)NC(=O)[C@H](CO)NC(=O)[C@@H](NC(=O)[C@H](CC(=O)O)NC(=O)[C@H](CO)NC(=O)[C@@H](NC(=O)[C@H](Cc1ccccc1)NC(=O)[C@@H](NC(=O)CNC(=O)[C@H](CCC(=O)O)NC(=O)C(C)(C)NC(=O)[C@@H](N)Cc1c[nH]cn1)[C@@H](C)O)[C@@H](C)O)C(C)C)C(=O)N[C@@H](C)C(=O)N[C@@H](Cc1c[nH]c2ccccc12)C(=O)N[C@@H](CC(C)C)C(=O)N[C@H](C(=O)N[C@@H](CCCNC(=N)N)C(=O)NCC(=O)N[C@@H](CCCNC(=N)N)C(=O)NCC(=O)O)C(C)C`, the results for the IC50 in assay [1] and in assay [2] were 210 pM and 24800 pM, respectively. This compound also gave an EC50 in assay [3] of 24.4 pM.

Take `CC[C@H](C)[C@H](NC(=O)[C@H](Cc1ccccc1)NC(=O)[C@H](CCC(=O)O)NC(=O)[C@H](CCCCN)NC(=O)[C@H](C)NC(=O)[C@H](C)NC(=O)[C@H](CCC(N)=O)NC(=O)[C@H](CCCCNC(=O)COCCOCCNC(=O)COCCOCCNC(=O)CC[C@H](NC(=O)CCCCCCCCCCCCCCCCC(=O)O)C(=O)O)NC(=O)[C@H](CCC(=O)O)NC(=O)[C@H](CC(C)C)NC(=O)[C@H](Cc1ccc(O)cc1)NC(=O)[C@H](CO)NC(=O)[C@H](CO)NC(=O)[C@@H](NC(=O)[C@H](CC(=O)O)NC(=O)[C@H](CO)NC(=O)[C@@H](NC(=O)[C@H](Cc1ccccc1)NC(=O)[C@@H](NC(=O)CNC(=O)[C@H](CCC(=O)O)NC(=O)C(C)(C)NC(=O)[C@@H](N)Cc1c[nH]cn1)[C@@H](C)O)[C@@H](C)O)C(C)C)C(=O)N[C@@H](C)C(=O)N[C@@H](Cc1c[nH]c2ccccc12)C(=O)N[C@@H](CC(C)C)C(=O)N[C@H](C(=O)N[C@@H](CCCCN)C(=O)NCC(=O)N[C@@H](CCCNC(=N)N)C(=O)NCC(=O)O)C(C)C`: the IC50 stood at 60 pM in assay [1] and 17700 pM in assay [2]. In addition, the EC50 in assay [3] came to 2.7 pM.

With `CC[C@H](C)[C@H](NC(=O)[C@H](Cc1ccccc1)NC(=O)[C@H](CCC(=O)O)NC(=O)[C@H](CCCCNC(=O)COCCOCCNC(=O)CC[C@H](NC(=O)CCCNC(=O)CCCCCCCCCCCCCCCCC(=O)O)C(=O)O)NC(=O)[C@H](C)NC(=O)[C@H](C)NC(=O)[C@H](CCC(N)=O)NC(=O)CNC(=O)[C@H](CCC(=O)O)NC(=O)[C@H](CC(C)C)NC(=O)[C@H](Cc1ccc(O)cc1)NC(=O)[C@H](CO)NC(=O)[C@H](CO)NC(=O)[C@@H](NC(=O)[C@H](CC(=O)O)NC(=O)[C@H](CO)NC(=O)[C@@H](NC(=O)[C@H](Cc1ccccc1)NC(=O)[C@@H](NC(=O)CNC(=O)[C@H](CCC(=O)O)NC(=O)C(C)(C)NC(=O)[C@@H](N)Cc1c[nH]cn1)[C@@H](C)O)[C@@H](C)O)C(C)C)C(=O)N[C@@H](C)C(=O)N[C@@H](Cc1c[nH]c2ccccc12)C(=O)N[C@@H](CC(C)C)C(=O)N[C@H](C(=O)N[C@@H](CCCNC(=N)N)C(=O)NCC(=O)N[C@@H](CCCNC(=N)N)C(=O)NCC(=O)O)C(C)C`, the IC50 in assay [2] was 20700 pM. The EC50 in assay [3] was 10.7 pM.

For `CC[C@H](C)[C@H](NC(=O)[C@H](Cc1ccccc1)NC(=O)[C@H](CCC(=O)O)NC(=O)[C@H](CCCCNC(=O)COCCOCCNC(=O)COCCOCCNC(=O)c1ccc(CN(CCC(=O)O)C(=O)CCCCCCCCCCCCCCCCC(=O)O)cc1)NC(=O)[C@H](C)NC(=O)[C@H](C)NC(=O)[C@H](CCC(N)=O)NC(=O)CNC(=O)[C@H](CCC(=O)O)NC(=O)[C@H](CC(C)C)NC(=O)[C@H](Cc1ccc(O)cc1)NC(=O)[C@H](CO)NC(=O)[C@H](CO)NC(=O)[C@@H](NC(=O)[C@H](CC(=O)O)NC(=O)[C@H](CO)NC(=O)[C@@H](NC(=O)[C@H](Cc1ccccc1)NC(=O)[C@@H](NC(=O)CNC(=O)[C@H](CCC(=O)O)NC(=O)C(C)(C)NC(=O)[C@@H](N)Cc1c[nH]cn1)[C@@H](C)O)[C@@H](C)O)C(C)C)C(=O)N[C@@H](C)C(=O)N[C@@H](Cc1c[nH]c2ccccc12)C(=O)N[C@@H](CC(C)C)C(=O)N[C@H](C(=O)N[C@@H](CCCNC(=N)N)C(=O)NCC(=O)N[C@@H](CCCNC(=N)N)C(=O)NCC(=O)O)C(C)C`, the values for the IC50 in assay [1] and in assay [2] were 9190 pM and 51700 pM, respectively.

As to `CCCCCCCCCCCCCCCC(=O)N[C@@H](CCC(=O)NCCOCCOCC(=O)NCCOCCOCC(=O)NCCCC[C@H](NC(=O)[C@H](C)NC(=O)[C@H](C)NC(=O)[C@H](CCC(N)=O)NC(=O)CNC(=O)[C@H](CCC(=O)O)NC(=O)[C@H](CC(C)C)NC(=O)[C@H](Cc1ccc(O)cc1)NC(=O)[C@H](CO)NC(=O)[C@H](CO)NC(=O)[C@@H](NC(=O)[C@H](CC(=O)O)NC(=O)[C@H](CO)NC(=O)[C@@H](NC(=O)[C@H](Cc1ccccc1)NC(=O)[C@@H](NC(=O)CNC(=O)[C@H](CCC(=O)O)NC(=O)C(C)(C)NC(=O)[C@@H](N)Cc1c[nH]cn1)[C@@H](C)O)[C@@H](C)O)C(C)C)C(=O)N[C@@H](CCC(=O)O)C(=O)N[C@@H](Cc1ccccc1)C(=O)N[C@H](C(=O)N[C@@H](C)C(=O)N[C@@H](Cc1c[nH]c2ccccc12)C(=O)N[C@@H](CC(C)C)C(=O)N[C@H](C(=O)N[C@@H](CCCNC(=N)N)C(=O)NCC(=O)N[C@@H](CCCNC(=N)N)C(=O)NCC(=O)O)C(C)C)[C@@H](C)CC)C(=O)O`, the IC50 in assay [2] was 3780 pM.

The values above are taken from ChEMBL document CHEMBL3616405 (J Med Chem, 2015).
